Experimental data taken from article PMC10999543, “Identification of kinase modulators as host-directed therapeutics against intracellular methicillin-resistant Staphylococcus aureus” (Frontiers in Cellular and Infection Microbiology, 2024).
Where two headings read alike, the source gives them in different places.

Assays:
HeLa cells = test: Compound screen by flow cytometry: HeLa cell count as surrogate readout of cell viability (z-scoreHeLa); format: cell-based, human; settings: for z-scoreHeLa mean: mean of 3 replicates; for z-scoreHeLa rep 1 / cell count rep 1: replicate 1; for z-scoreHeLa rep 2 / cell count rep 2: replicate 2; for z-scoreHeLa rep 3 / cell count rep 3: replicate 3; for all read-outs here: test concentration or dose not given here
Summary of the method: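 The viability surrogate was the count of fixed HeLa cells by flow cytometry, converted to z-scores against DMSO controls with values deviating two-fold excluded. Before counting, cells had been infected with MRSA for 1 h and cleared of extracellular bacteria with gentamicin. They were then exposed overnight to kinase inhibitors in triplicate.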

intracellular MRSA = format: cell-based, Staphylococcus aureus; settings: for z-scoreMRSA+ mean: mean of 3 replicates; for z-scoreMRSA+ rep 1 / %GFP+ rep 1: replicate 1; for z-scoreMRSA+ rep 2 / %GFP+ rep 2: replicate 2; for z-scoreMRSA+ rep 3 / %GFP+ rep 3: replicate 3; for %GFP+ rep 1: test concentration or dose not given here; for %GFP+ rep 2: test concentration or dose not given here; for %GFP+ rep 3: test concentration or dose not given here; for effect: test concentration or dose not given here; for z-scoreMRSA+ mean: test concentration or dose not given here; for z-scoreMRSA+ rep 1: test concentration or dose not given here; for z-scoreMRSA+ rep 2: test concentration or dose not given here; for z-scoreMRSA+ rep 3: test concentration or dose not given here
Summary of the method: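 Values are z-scores: GFP-positive HeLa percentage and event count per well against plate statistics, minus the mean DMSO z-score. Wells deviating two-fold from controls were left out of plate means. Infection was at a mean MOI of 6.8, with an overnight compound exposure.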

[1] = PKIS compound screen, Yes/No call
[2] = PKIS compounds raw data, HeLa cell count
[3] = PKIS compound screen, Yes/No call (effect without cell death)
[4] = PKIS compounds raw data, MRSA-infected HeLa cells
[5] = PKIS compound screen raw data, HeLa cell count
[6] = PKIS compound screen, HeLa cell count
[7] = PKIS compound screen, Yes/No call on z-scoreHeLa
[8] = PKIS compound screen raw data, MRSA-infected HeLa cells
[9] = PKIS compound screen, MRSA-infected HeLa cells
[10] = PKIS compound screen, Yes/No call on z-scoreMRSA+
[11] = compound screen, HeLa cell count
[12] = compound screen, MRSA-infected HeLa cells

SMILES	cell death (HeLa cells; [1])	z-scoreHeLa mean (HeLa cells; PKIS compound screen)	z-scoreHeLa rep 1 (HeLa cells; PKIS compound screen)	z-scoreHeLa rep 2 (HeLa cells; PKIS compound screen)	z-scoreHeLa rep 3 (HeLa cells; PKIS compound screen)	cell count rep 1 (HeLa cells; [2])	cell count rep 2 (HeLa cells; [2])	cell count rep 3 (HeLa cells; [2])	effect (intracellular MRSA; [1])	hit (intracellular MRSA; [3])	z-scoreMRSA+ mean (intracellular MRSA; PKIS compound screen)	z-scoreMRSA+ rep 1 (intracellular MRSA; PKIS compound screen)	z-scoreMRSA+ rep 2 (intracellular MRSA; PKIS compound screen)	z-scoreMRSA+ rep 3 (intracellular MRSA; PKIS compound screen)	%GFP+ rep 1 (intracellular MRSA; [4]) [%]	%GFP+ rep 2 (intracellular MRSA; [4]) [%]	%GFP+ rep 3 (intracellular MRSA; [4]) [%]	cell count rep 1 (HeLa cells; [5])	cell count rep 2 (HeLa cells; [5])	cell count rep 3 (HeLa cells; [5])	also measured
Cc1cccc(-c2nc(Nc3ccc4ncsc4c3)c3ccccc3n2)n1 [GW867588X]	No	1.67	1.09	1.64	2.28	7867	8486	9199	No	No	0.0377	-0.25	0.22	0.14	25.8	27.2	28.0	–	–	–	–
COc1cc(Nc2ncc3c(C)nc(-c4cc5ccccc5[nH]4)n3n2)cc(OC)c1OC [GW869516X]	No	1.43	1.29	1.41	1.60	8188	8134	8115	No	No	-0.71	-0.87	-0.43	-0.83	22.6	23.8	22.8	–	–	–	–
Cc1nc(-c2ccccc2)n2nc(NCCCN3CCOCC3)ncc12 [GW874091X]	No	-0.73	-1.54	-0.37	-0.27	3071	3785	6390	No	No	0.31	0.36	0.54	0.0338	14.3	15.1	16.0	–	–	–	–
Cc1cccc(-c2nc(Nc3cccc(C(N)=O)c3)c3ccccc3n2)n1 [GW876019X]	No	-1.99	-2.12	-2.54	-1.32	2511	2183	3514	No	No	0.49	0.42	0.20	0.84	29.2	27.1	31.8	25839	10617	8442	z-scoreHeLa mean (HeLa cells; [6]): -1.76; z-scoreHeLa rep 1 (HeLa cells; [6]): -0.74; z-scoreHeLa rep 2 (HeLa cells; [6]): -2.51; z-scoreHeLa rep 3 (HeLa cells; [6]): -2.04; cell death (HeLa cells; [7]): No; %GFP+ rep 1 (intracellular MRSA; [8]): 11.7%; %GFP+ rep 2 (intracellular MRSA; [8]): 12.9%; %GFP+ rep 3 (intracellular MRSA; [8]): 16.0%; z-scoreMRSA+ mean (intracellular MRSA; [9]): -1.70; z-scoreMRSA+ rep 1 (intracellular MRSA; [9]): -1.89; z-scoreMRSA+ rep 2 (intracellular MRSA; [9]): -1.78; z-scoreMRSA+ rep 3 (intracellular MRSA; [9]): -1.43; effect (intracellular MRSA; [10]): No
Cc1cccc(-c2nc(Nc3ccc4c(cnn4C)c3)c3ccccc3n2)n1 [GW876731X]	–	–	–	–	–	–	–	–	–	–	–	–	–	–	–	–	–	29057	27157	25742	cell death (HeLa cells; Yes/No call from z-scoreHeLa): No; z-scoreHeLa mean (HeLa cells; [11]): 0.49; z-scoreHeLa rep 1 (HeLa cells; [11]): -0.19; z-scoreHeLa rep 2 (HeLa cells; [11]): 0.32; z-scoreHeLa rep 3 (HeLa cells; [11]): 1.33; %GFP+ rep 1 (intracellular MRSA; [8]): 19.5%; %GFP+ rep 2 (intracellular MRSA; [8]): 19.1%; %GFP+ rep 3 (intracellular MRSA; [8]): 19.8%; effect (intracellular MRSA; Yes/No call from z-scoreMRSA+): No; hit (intracellular MRSA; Yes/No: effect without cell death): No; z-scoreMRSA+ mean (intracellular MRSA; [12]): -0.09; z-scoreMRSA+ rep 1 (intracellular MRSA; [12]): 0.19; z-scoreMRSA+ rep 2 (intracellular MRSA; [12]): -0.0842; z-scoreMRSA+ rep 3 (intracellular MRSA; [12]): -0.39
CN1CCC(n2cnc(-c3ccc(F)cc3)c2-c2ccnc(Nc3ccccc3)n2)CC1 [SB-236687]	–	–	–	–	–	–	–	–	–	Yes	–	–	–	–	–	–	–	21592	24622	40771	z-scoreHeLa mean (HeLa cells; [6]): -0.54; z-scoreHeLa rep 1 (HeLa cells; [6]): 0.22; z-scoreHeLa rep 2 (HeLa cells; [6]): -1.90; z-scoreHeLa rep 3 (HeLa cells; [6]): 0.04; cell death (HeLa cells; [7]): No; %GFP+ rep 1 (intracellular MRSA; [8]): 10.0%; %GFP+ rep 2 (intracellular MRSA; [8]): 12.2%; %GFP+ rep 3 (intracellular MRSA; [8]): 12.7%; z-scoreMRSA+ mean (intracellular MRSA; [9]): -2.18; z-scoreMRSA+ rep 1 (intracellular MRSA; [9]): -2.49; z-scoreMRSA+ rep 2 (intracellular MRSA; [9]): -1.90; z-scoreMRSA+ rep 3 (intracellular MRSA; [9]): -2.16; effect (intracellular MRSA; [10]): Yes
